Results: a melting point compilation (Tetko et al.; mined from patent text by program, amines drawn as free bases though some values may be those of a salt)

| Structure (SMILES) | melting point [°C] |
| --- | --- |
| CC1CCCN(CC(O)c2ccccc2)C1 (centres undefined) | 70 |
| CC1CC(=O)NN=C1c1ccc(NCCNC(N)=S)c([N+](=O)[O-])c1 (centres undefined) | 231 to 233 |
| Cn1nc(-c2cccc(F)c2)n(C)c1=S | 126 to 128 |
| Cc1ccc(OCCCCCCCCCCC(Cl)(Cl)C(=O)O)cc1 | 67 to 68 |
| CC(C)N(Cc1ccc(Cl)c(Cl)c1)S(=O)(=O)c1ccc(Cl)s1 | 66 to 67 |
| CCN1CCN(Cc2cc(C)c3c(c2)-c2[nH]nc(-c4ccsc4)c2C3)CC1 | 230 to 231 |
| CN(C)c1c(F)c(F)c(F)c2c1c(=O)cc(C(=O)O)n2C1CC1 | 160 to 163 |
| ON=C(Cc1cnccn1)c1ccc(Cl)cc1 | 134 |
| O=C(N[C@@H]1CCc2ccccc21)c1nn(-c2ccc(F)cc2F)c2c1C1CCC2C1 (some centres undefined) | 158 to 161 |
| [N-]=[N+]=NC[C@@H]1CN(c2cc(F)c(N3CNC(=O)C3)c(F)c2)C(=O)O1 | 186 to 188 |
| CCOC(=O)c1[nH]c(=O)c(CC(C)C)[n+]([O-])c1N | 179 to 181 |
| CS(=O)(=O)c1ccc(C=CCN2CCc3nc(N)sc3CC2)cc1 | 157 to 161 |
| OC1CSC(Oc2cncc(-c3ncccn3)c2)C(O)C1O (centres undefined) | 201 |
| CCCCCCC(=N)NC(=S)Nc1ccc(C)cc1Cl | 78 to 80 |
| CCC(=O)Nc1ccc(-c2ccc(C(=O)N3CCN4CCC3CC4)o2)cc1 | 264 |
| O=C(NCC12CC3CC(CC(C3)C1)C2)c1c(Cl)ccc2nc(N3CCC[C@H](NCCc4nn[nH]n4)C3)ccc12 | 168 to 172 |
| CC1(C)CC2(CC(C)(C)N1O)NC(=O)N(CC1CO1)C2=O (centres undefined) | 154 |
| CC1(C)CC1C(=O)Nc1ccc(C2=NNC(=O)CC2)cc1 (centres undefined) | 213 to 214 |
| C=C1CCC2C3Cc4ccc(O)cc4C2(CCN3CC2CC2)C1 (centres undefined) | 220 to 223 |
| CNC(=O)c1c(I)c(NC(=O)COC)c(I)c(C(=O)NC(CO)C(=O)O)c1I (racemic) | 247 to 248 |
| CC(C)Cc1c(C(=O)O)c(C(F)F)nc(C(F)(F)F)c1C(C#N)=C1CCCO1 | 192 to 193 |

| Structure (SMILES) | melting point [°C] |
| --- | --- |
| CC1CC2C(=CCC3(C)C(C(=O)CCl)=CCC23)C2(C)C=CC(=O)C=C12 (centres undefined) | 164 |
| CCCCCCCCCCCCCCCCCCCCCC(=O)Oc1cc(C(C)(C)C)c(O)c(C(C)(C)C)c1 | 59 to 61 |
| Cc1c(C2CCN(C)CC2)[nH]c(=O)c2ccccc12 | 202 to 204 |
| N#Cc1cn(COC(CO)CO)c2ncnc(N)c12 | 195 |
| O=C(CCCC1CCCCCCCCCCC1)C1=C(O)CSC1=O | 62 to 69 |
| O=C(c1cc(O)ccc1Nc1ccncc1)N1CCCCC1 | 242 to 243 |
| OCc1ccc(Br)nc1 | 49 to 51 |
| CS(=O)(=O)Nc1nn(CCN2CCCCC2)cc1-c1ccccc1 | 121 |
| C=CCNc1nc(-c2ccccc2)c(-c2ccc(=O)n(CC=C)n2)s1 | 146 to 147 |
| Cc1ccc(S(=O)(=O)OC[C@@H]2CCCN(C)C2)cc1 | 74.5 to 81 |
| COc1cccc2c1C13CCNC(C2)C1(O)CCC(=O)C3 (centres undefined) | 137 to 139 |
| Cc1nc(NC(=O)c2cnn3c(C(F)F)cc(-c4ccc(C(F)(F)F)cc4)nc23)sc1S(=O)(=O)N1CCN(C)CC1 | 269 |
| Cc1sc2nc(N)[nH]c(=O)c2c1-c1ccc(F)cc1 | 360 to 362 |
| FC(F)(F)c1n[nH]c(-c2nc3ccccc3s2)n1 | 254 |
| O=C(O)C1CCc2onc(-c3ccc(Cl)cc3)c2CC1 (centres undefined) | 144 to 145 |
| O=C(O)CCC1CCCC2CCC(=O)NC12 (centres undefined) | 95 to 97 |
| NC[C@H](O)c1ccc2nnnn2c1 | 153 to 154 |
| Cn1c([N+](=O)[O-])cnc1C=O | 90 to 94 |
| Fc1cc(Cl)ccc1-c1ncnc(C(F)F)c1Cl | 76 to 77 |
| CC1C(=S)Nc2c1cc(F)c(F)c2F (centres undefined) | 177 to 178 |
| CCCN(CC)C(C)CN1CCc2c(c(=O)oc3cc(OC)ccc23)C1 (centres undefined) | 100 to 101 |

Next, values leading:

| melting point [°C] | Structure (SMILES) |
| --- | --- |
| 162 to 165 | CC(C)OC(=O)c1ccc(Nc2cccc(Br)c2)c([N+](=O)[O-])c1 |
| 79 to 82 | CCOC(=O)CCCCOc1ccc(N2CCN(c3ccncc3)CC2)cc1 |
| 80 to 81 | C=CCOc1ccc(Nc2ccn(-c3ccccc3)n2)cc1 |
| 128 to 130 | COc1cc([C@H]2C(C#N)=C(N)Oc3c2ccc(NC(=O)CN(C)C(=O)OC2c4ccccc4-c4ccccc42)c3N)cc(Br)c1OC |
| 215 | O=C(NC(=O)c1c(O)cccc1F)Nc1ccc(Cl)cc1 |
| 208 to 210 | COc1c(-c2ccccc2C)c(=O)[nH]c2ccccc12 |
| 85 to 87 | COC(=O)[C@H]1CN(C(=O)OC(C)(C)C)C[C@H]1c1ccc(OC)c(OC2CCCC2)c1 (relative stereo) |
| 152 to 153 | CCCOc1ccc(-c2ccc3c(c2)C=C(C(=O)OC)CCN3C=O)cc1 |
| 67 to 68 | CCOC(=O)C(C)c1ccc(C(=O)c2ccc(Cl)cc2)n1C (centres undefined) |
| 91 to 92 | OCCCc1ccc(SCc2coc(/C=C/c3ccccc3)n2)cc1 |
| 151 to 153 | O=C1N(Cc2ccccc2)C(O)C2CSC(c3ccccc3)N12 (mixture of isomers) |
| 98 to 100 | O=C(c1ccc2cnccc2n1)N1CCc2ccccc2C1 |
| 195 to 196 | CC(C(=O)Nc1ccc(C(=O)O)cc1)c1ccc2c(c1)C(C)(C)CCC2(C)C (centres undefined) |
| 286 to 287 | COc1ccc(C(=O)NCc2ccc(C(=O)O)cc2)cc1C12CC3CC(CC(C3)C1)C2 |
| 250 to 252 | Cc1c(C(=O)O)sc2cc(Cc3cccnc3)ccc12 |
| 175 to 177 | CCOC(=O)C1=C(C)NC(C)=C(C(=O)OCC)C1c1ccccc1/C=C/C(=O)OC1CCCCC1 |
| 138 to 139 | CN1CCc2nc3cc(Cl)ccc3c(Oc3ccccc3)c2C1 |
| 166 to 169 | S=C(NCCc1ccccc1Cl)Nc1nc2ccccc2[nH]1 |
| 120 to 124 | CC(=O)N1CCC(C(=O)N[C@@H](CC(C)C)C(=O)N[C@@H](C(C)C)[C@@H](O)c2c(-c3ccccc3)c2=O)CC1 |

| melting point [°C] | Structure (SMILES) |
| --- | --- |
| 93 to 98 | CC(C)CC(NC(=O)C(Cc1c[nH]cn1)NC(=O)C(Cc1cccc2ccccc12)Cc1cccc2ccccc12)C(O)C(=O)OC(C)C (centres undefined) |
| 184 to 187 | COC(=O)c1cc2cc([N+](=O)[O-])c(OCc3ccccc3)cc2[nH]1 |
| 110 to 112 | CCCCCCCCOC(=O)/C=C/c1ccccc1C1C(C(=O)OCC)=C(C)NC(C)=C1C(=O)OCC |
| 160 | Cn1cc(C2CCN(CCCCNC(=O)c3sc(-c4ccc(C(F)(F)F)cc4)nc3CO)CC2)c2ccccc21 |
| 108 to 110 | Cc1cc(OCCCCOc2ccc([N+](=O)[O-])c(C)c2)ccc1[N+](=O)[O-] |
| > 300 | CNc1nc(C2C(=O)Nc3ccccc32)c2cn(C3CCCC3)nc2n1 (centres undefined) |
| 140 to 142 | C=CCOc1ccc(S(=O)(=O)c2ccc(OCC=C)cc2)cc1 |
| 121 to 122 | Cc1ccc(C2COc3c(C)c(C)c(N)c(C)c32)cc1 (centres undefined) |
| 265 to 266 | CN1CCN(c2ccc(Nc3ncc4c(Br)cc(-c5ccc(S(C)(=O)=O)cc5)n4n3)cc2)CC1 |
| 66 to 67 | C=CCc1c(C=O)cccc1OCc1ccccc1 |
| 252 | O=CNc1nc(-c2ccccc2)c2cc(Cl)ccc2n1 |
| 174 to 175 | OCCCN1CCN(C2=Nc3ccccc3Cn3c2cc2ccccc23)CC1 |
| 157 to 159 | COc1ccc2c(c1)C(=O)C(=Cc1cccc([N+](=O)[O-])c1)CO2 |
| 156 to 157 | CCOC(=O)C(=O)Nc1ccc(Cl)cc1[N+](=O)[O-] |
| 178 to 179 | CC(=O)c1cccc(-c2ccc3c(c2)C(C)(C)OC(=O)N3)c1 |
| 290 to 292 | O=C1NC(=O)C2(N1)C(=O)N(Cc1cc(Cl)c(Br)c(Cl)c1)c1ccccc12 (centres undefined) |
| 136 | COC(=O)c1cc(C(=O)N[C@@H](Cc2ccccc2)[C@H](O)CNC2(c3cccc(C(F)(F)F)c3)CC2)n2c1CN(C(=O)OC(C)(C)C)CC2 |
| 186 to 188 | NS(=O)(=O)Cc1ccc2[nH]cc(CCN3C(=O)c4ccccc4C3=O)c2c1 |
| 52 to 54 | COc1cc(C(C)=O)ccc1OCCCCBr |

| melting point [°C] | Structure (SMILES) |
| --- | --- |
| 188 | Cc1nc2ccccn2c1-c1csc(Nc2ccc(C(=O)NO)cc2)n1 |
| 187 to 190 | Cc1ccc(C)c(OC(=O)c2c3ccccc3nc3ccccc23)c1 |
| 99 to 100 | CCOC(=O)c1c(-c2ccncc2)[nH]c(-c2ccncc2)c1-c1ccccc1 |
| 158 to 159 | CCOc1cc(CN2C(=O)c3ccccc3C2=O)c2c(c1)Oc1c(ccc(OCC)c1CO[Si](C)(C)C(C)(C)C)N2CC |
| 214 to 216 | c1ccc(-c2ncc(-c3csc(-c4ccccc4)n3)cn2)cc1 |
| 75 to 80 | N#CCc1ccc(CNC(=O)C2Cc3ccccc3N2S(=O)(=O)c2ccc(-c3cccc(C(F)(F)F)c3)cc2)cc1 (centres undefined) |
| 223 to 225 | O=C(O)c1cc(-n2c(-c3ccccc3)cc3c2CCCC3)cc(Cl)c1O |
| 57 to 59 | CCOC(=O)CCOc1cccc2c1CCCC2=O |
| 89 to 91 | CCCCc1nnc(SCC2CCCCC2)n1Cc1ccc(-c2ccccc2-c2nnn[nH]2)cc1 |
| 118 to 120 | CNC(=O)c1ccnc(N2CCN(Cc3ccc(F)cc3)C2=O)c1 |
| 182 to 191 | CC(=O)N(Nc1ccc(Cl)cc1F)c1c(C#N)cnc2cc(O)ccc12 |
| 132 | CC(=O)OC1CSC(Oc2cccc(-c3ccc(C)o3)c2)C(OC(C)=O)C1OC(C)=O (centres undefined) |
| 118 to 122 | CCOC(=O)C(C)=CNc1ccc(OCC)c(C)n1 |
| 62 to 64 | Cc1ccccc1C(=O)NCN1CCN(c2ccccc2C#N)CC1 |
| 123 to 124 | Nc1c(CC(=O)O)cccc1Oc1ccc(Cl)cc1Cl |
| 160 to 161 | CCCCCCCNC(=O)Nc1ccccc1C(=O)NC1CCN(CCSc2nc(-c3ccccc3)c(-c3ccccc3)[nH]2)CC1 |
| 293 to 295 | COc1cc2ncnc(Nc3cc(Cl)c(O)c(Cl)c3)c2cc1OC |
| 134 to 137 | O=C(NCCO)c1cccc(-c2cccc3cc(Cc4ccc(=O)[nH]c4)sc23)c1 |
| 196 to 199 | CC(C)[C@H](NC(=O)OCc1ccccc1)C(=O)NC(Cc1ccccc1)C(O)C(Cc1ccccc1)NC(=O)[C@@H](NC(=O)c1cccnc1)C(C)C (some centres undefined) |
